US20230414758A1, “CAPSAICIN-DERIVED PHOTOSENSITIZER, AND PREPARATION METHOD AND USE THEREOF” (priority 2022, published 2023)

Key:
[1] = reference value used for calculation; cited from earlier work
TRPV1 protein = molecular target: T1, TRPV1 protein (Mus musculus, UniProt Q704Y3); test: Calcium regulation ability at the cellular level, Fluo-8 AM staining, confocal microscopy; format: cell-based; details: 4T1 cells
T1 construct: endogenous in cells; host or cells: 4T1 cells
Description: The specific operations were as follows.
A high-glucose DMEM cell culture medium containing 10% fetal bovine serum and 5% double antibodies (the following media all contained 10% fetal bovine serum and 5% double antibodies) was prepared. Triple negative breast cancer 4T1 cells in logarithmic growth phase were seeded in a Confocal cell culture dish at a density of 1.0×10^4 cells/well, and incubated in a cell incubator (37° C., 5% CO2) for 12 hrs. […] The cells were incubated in an incubator for another 12 hrs, and the culture medium was changed after incubation. The irradiation group was irradiated with LED light (660 nm, 20 mW cm^−2) for 15 min (without treatment in the non-irradiation group). After irradiation, the culture medium was discarded. The cells were rinsed three times with PBS, and the rinsed cells were stained (10 min) with a fluorescent dye Fluo-8 AM (50.0 μmol L^−1, 1.0 mL) for intracellular calcium. After staining, the cells were rinsed with PBS, and observed by laser confocal microscopy.

T1 sequence (Q704Y3 whole entry): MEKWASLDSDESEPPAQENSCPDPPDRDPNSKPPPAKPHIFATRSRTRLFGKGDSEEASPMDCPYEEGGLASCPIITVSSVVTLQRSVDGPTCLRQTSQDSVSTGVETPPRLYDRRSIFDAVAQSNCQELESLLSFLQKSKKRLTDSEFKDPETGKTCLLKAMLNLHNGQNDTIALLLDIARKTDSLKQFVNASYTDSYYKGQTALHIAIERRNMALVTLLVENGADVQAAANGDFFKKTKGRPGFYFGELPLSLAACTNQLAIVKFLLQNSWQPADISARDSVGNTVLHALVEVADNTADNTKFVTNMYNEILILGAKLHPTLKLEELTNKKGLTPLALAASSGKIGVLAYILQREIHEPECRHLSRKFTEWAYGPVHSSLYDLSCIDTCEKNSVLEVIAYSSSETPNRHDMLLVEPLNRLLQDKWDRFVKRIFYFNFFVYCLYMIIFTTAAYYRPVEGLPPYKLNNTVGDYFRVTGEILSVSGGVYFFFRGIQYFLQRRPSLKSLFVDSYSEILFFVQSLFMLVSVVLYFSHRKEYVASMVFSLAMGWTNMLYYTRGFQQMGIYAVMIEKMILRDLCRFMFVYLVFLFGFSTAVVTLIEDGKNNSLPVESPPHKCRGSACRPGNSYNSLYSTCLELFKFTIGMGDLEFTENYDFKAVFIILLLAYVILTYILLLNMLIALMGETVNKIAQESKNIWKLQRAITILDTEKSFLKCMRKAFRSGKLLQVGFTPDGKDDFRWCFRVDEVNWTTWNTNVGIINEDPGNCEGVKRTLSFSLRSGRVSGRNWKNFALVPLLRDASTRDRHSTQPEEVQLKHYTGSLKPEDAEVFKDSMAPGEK

Compound	singlet oxygen quantum yield of the reference [1]	change of intracellular calcium fluorescence intensity after irradiation versus before irradiation (TRPV1 protein; LED 660 nm, 20 mW cm^−2, 15 min)	intracellular calcium fluorescence under non-irradiation and irradiation conditions (TRPV1 protein; compared with PBS and BDP groups)
[Zn+2].c1ccc2c(c1)-c1nc-2nc2[n-]c(nc3nc([n-]c4nc(n1)-c1ccccc1-4)-c1ccccc1-3)c1ccccc21 [ZnPc, Zinc phthalocyanine]	1		
COc1cc(CNC(=O)CCCC/C=C/C(C)C)ccc1O [CAP, capsaicin]		does not change obviously	intense green fluorescence
